Data: ChEMBL document CHEMBL5226311, “Recent Progress on Tubulin Inhibitors with Dual Targeting Capabilities for Cancer Therapy” (J Med Chem, 2021)

Experiments:
[1] = molecular target: Epidermal growth factor receptor (Homo sapiens, UniProt P00533); assay: Inhibition of EGFR (unknown origin)
[2] = molecular target: Vascular endothelial growth factor receptor 2 (Homo sapiens, UniProt P35968); assay: Inhibition of VEGFR2 (unknown origin)
EA.hy 926 = assay: Antiproliferative activity against human EA.hy 926 cells assessed as cell growth inhibition; assay type: functional, cell-based
A549 [3] = assay: Antiproliferative activity against human A549 cells assessed as cell growth inhibition; assay type: functional, cell-based
MCF7 [4] = assay: Antiproliferative activity against human MCF7 cells assessed as cell growth inhibition; assay type: functional, cell-based
NCI-H460 [5] = assay: Antitumor activity against human NCI-H460 cells expressing TaxR xenografted in mouse assessed as inhibition of tumor growth at 30 mg/kg relative to control; assay type: functional; settings: read-out: TGI
[6] = Antiproliferative activity against human HBL1 cells assessed as cell growth inhibition measured after 72 hrs by MTT assay; assay type: functional, cell-based; settings: HBL1, 72 h
JeKo-1 = assay: Antiproliferative activity against human JeKo-1 cells assessed as cell growth inhibition measured after 72 hrs by MTT assay; assay type: functional, cell-based; settings: JeKo-1, 72 h
HT-29 = assay: Antiproliferative activity against human HT-29 cells assessed as cell growth inhibition measured after 72 hrs by MTT assay; assay type: functional, cell-based; settings: HT-29, 72 h
[7] = Antiproliferative activity against human ARD cells assessed as cell growth inhibition measured after 72 hrs by MTT assay; assay type: functional, cell-based
RPMI-8226 = assay: Antiproliferative activity against human RPMI-8226 cells assessed as cell growth inhibition measured after 72 hrs by MTT assay; assay type: functional, cell-based; settings: RPMI-8226, 72 h
A2780S = assay: Antiproliferative activity against human A2780S cells assessed as cell growth inhibition measured after 72 hrs by MTT assay; assay type: functional, cell-based
MV4-11 = assay: Antiproliferative activity against human MV4-11 cells assessed as cell growth inhibition measured after 72 hrs by MTT assay; assay type: functional, cell-based; settings: MV4-11, 72 h
SK-OV-3 = assay: Antiproliferative activity against human SK-OV-3 cells assessed as cell growth inhibition measured after 72 hrs by MTT assay; assay type: functional, cell-based; settings: SK-OV-3, 72 h
NCI-H460 [8] = assay: Antiproliferative activity against human NCI-H460 cells assessed as cell growth inhibition measured after 72 hrs by MTT assay; assay type: functional, cell-based; settings: NCI-H460, 72 h
A-375 = assay: Antiproliferative activity against human A-375 cells assessed as cell growth inhibition measured after 72 hrs by MTT assay; assay type: functional, cell-based; settings: A-375, 72 h
MDA-MB-231 = assay: Antiproliferative activity against human MDA-MB-231 cells assessed as cell growth inhibition measured after 72 hrs by MTT assay; assay type: functional, cell-based; settings: MDA-MB-231, 72 h
HepG2 = assay: Antiproliferative activity against human HepG2 cells assessed as cell growth inhibition measured after 72 hrs by MTT assay; assay type: functional, cell-based; settings: HepG2, 72 h
U-266 = assay: Antiproliferative activity against human U-266 cells assessed as cell growth inhibition measured after 72 hrs by MTT assay; assay type: functional, cell-based; settings: U-266, 72 h
HCT-116 [9] = assay: Antiproliferative activity against human HCT-116 cells assessed as cell growth inhibition measured after 72 hrs by MTT assay; assay type: functional, cell-based; settings: HCT-116, 72 h
MM1.S = assay: Antiproliferative activity against human MM1.S cells assessed as cell growth inhibition measured after 72 hrs by MTT assay; assay type: functional, cell-based
[10] = Antiproliferative activity against human LAMA84-s cells assessed as cell growth inhibition measured after 72 hrs by MTT assay; assay type: functional, cell-based
Ramos = assay: Antiproliferative activity against human Ramos cells assessed as cell growth inhibition measured after 72 hrs by MTT assay; assay type: functional, cell-based
K562 = assay: Antiproliferative activity against human K562 cells assessed as cell growth inhibition measured after 72 hrs by MTT assay; assay type: functional, cell-based; settings: K562, 72 h
MCF7 [11] = assay: Antiproliferative activity against human MCF7 cells assessed as cell growth inhibition measured after 72 hrs by MTT assay; assay type: functional, cell-based; settings: MCF7, 72 h
A549 [12] = assay: Antiproliferative activity against human A549 cells assessed as cell growth inhibition measured after 72 hrs by MTT assay; assay type: functional, cell-based; settings: A549, 72 h
Tubulin = assay: Inhibition of tubulin depolymerization (unknown origin); assay type: protein-complex assay, Homo sapiens
HONE1 cell line = assay: Antiproliferative activity against human HONE1 cell line assessed as cell growth inhibition; assay type: functional, cell-based
HCT-116 [13] = assay: Antiproliferative activity against human HCT-116 cells assessed as cell growth inhibition; assay type: functional, cell-based
KB = assay: Antiproliferative activity against human KB cells assessed as cell growth inhibition; assay type: functional, cell-based

Epidermal growth factor receptor, sequence (P00533 whole entry): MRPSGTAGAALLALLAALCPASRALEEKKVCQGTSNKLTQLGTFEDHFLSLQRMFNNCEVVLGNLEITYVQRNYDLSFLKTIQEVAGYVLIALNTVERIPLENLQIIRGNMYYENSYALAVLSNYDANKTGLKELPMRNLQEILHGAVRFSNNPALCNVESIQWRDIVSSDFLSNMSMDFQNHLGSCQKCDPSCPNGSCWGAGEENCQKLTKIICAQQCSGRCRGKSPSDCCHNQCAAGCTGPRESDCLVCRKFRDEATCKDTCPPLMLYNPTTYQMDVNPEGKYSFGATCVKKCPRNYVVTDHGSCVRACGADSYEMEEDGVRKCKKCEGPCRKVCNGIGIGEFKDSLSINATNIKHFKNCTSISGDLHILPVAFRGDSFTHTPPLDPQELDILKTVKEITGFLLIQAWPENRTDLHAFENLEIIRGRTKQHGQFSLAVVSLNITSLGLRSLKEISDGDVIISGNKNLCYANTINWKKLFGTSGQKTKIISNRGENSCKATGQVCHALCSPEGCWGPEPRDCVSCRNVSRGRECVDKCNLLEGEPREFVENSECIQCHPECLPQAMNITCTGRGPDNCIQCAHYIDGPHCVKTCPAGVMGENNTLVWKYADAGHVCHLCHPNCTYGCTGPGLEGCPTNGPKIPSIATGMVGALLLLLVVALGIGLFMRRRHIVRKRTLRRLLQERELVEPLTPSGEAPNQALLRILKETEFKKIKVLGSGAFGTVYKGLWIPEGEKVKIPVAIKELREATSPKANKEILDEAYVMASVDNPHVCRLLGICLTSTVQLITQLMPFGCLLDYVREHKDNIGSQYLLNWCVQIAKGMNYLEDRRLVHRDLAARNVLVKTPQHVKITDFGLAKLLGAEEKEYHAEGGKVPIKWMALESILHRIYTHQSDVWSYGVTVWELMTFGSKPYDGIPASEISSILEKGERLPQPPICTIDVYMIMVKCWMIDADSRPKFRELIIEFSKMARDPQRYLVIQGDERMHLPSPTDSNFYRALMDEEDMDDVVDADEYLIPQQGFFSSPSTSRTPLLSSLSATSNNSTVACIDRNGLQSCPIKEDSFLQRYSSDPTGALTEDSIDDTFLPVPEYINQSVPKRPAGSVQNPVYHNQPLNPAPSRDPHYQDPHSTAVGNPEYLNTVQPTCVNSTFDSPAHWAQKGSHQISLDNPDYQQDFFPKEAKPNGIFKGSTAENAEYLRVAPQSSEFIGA
Vascular endothelial growth factor receptor 2, sequence (P35968 whole entry): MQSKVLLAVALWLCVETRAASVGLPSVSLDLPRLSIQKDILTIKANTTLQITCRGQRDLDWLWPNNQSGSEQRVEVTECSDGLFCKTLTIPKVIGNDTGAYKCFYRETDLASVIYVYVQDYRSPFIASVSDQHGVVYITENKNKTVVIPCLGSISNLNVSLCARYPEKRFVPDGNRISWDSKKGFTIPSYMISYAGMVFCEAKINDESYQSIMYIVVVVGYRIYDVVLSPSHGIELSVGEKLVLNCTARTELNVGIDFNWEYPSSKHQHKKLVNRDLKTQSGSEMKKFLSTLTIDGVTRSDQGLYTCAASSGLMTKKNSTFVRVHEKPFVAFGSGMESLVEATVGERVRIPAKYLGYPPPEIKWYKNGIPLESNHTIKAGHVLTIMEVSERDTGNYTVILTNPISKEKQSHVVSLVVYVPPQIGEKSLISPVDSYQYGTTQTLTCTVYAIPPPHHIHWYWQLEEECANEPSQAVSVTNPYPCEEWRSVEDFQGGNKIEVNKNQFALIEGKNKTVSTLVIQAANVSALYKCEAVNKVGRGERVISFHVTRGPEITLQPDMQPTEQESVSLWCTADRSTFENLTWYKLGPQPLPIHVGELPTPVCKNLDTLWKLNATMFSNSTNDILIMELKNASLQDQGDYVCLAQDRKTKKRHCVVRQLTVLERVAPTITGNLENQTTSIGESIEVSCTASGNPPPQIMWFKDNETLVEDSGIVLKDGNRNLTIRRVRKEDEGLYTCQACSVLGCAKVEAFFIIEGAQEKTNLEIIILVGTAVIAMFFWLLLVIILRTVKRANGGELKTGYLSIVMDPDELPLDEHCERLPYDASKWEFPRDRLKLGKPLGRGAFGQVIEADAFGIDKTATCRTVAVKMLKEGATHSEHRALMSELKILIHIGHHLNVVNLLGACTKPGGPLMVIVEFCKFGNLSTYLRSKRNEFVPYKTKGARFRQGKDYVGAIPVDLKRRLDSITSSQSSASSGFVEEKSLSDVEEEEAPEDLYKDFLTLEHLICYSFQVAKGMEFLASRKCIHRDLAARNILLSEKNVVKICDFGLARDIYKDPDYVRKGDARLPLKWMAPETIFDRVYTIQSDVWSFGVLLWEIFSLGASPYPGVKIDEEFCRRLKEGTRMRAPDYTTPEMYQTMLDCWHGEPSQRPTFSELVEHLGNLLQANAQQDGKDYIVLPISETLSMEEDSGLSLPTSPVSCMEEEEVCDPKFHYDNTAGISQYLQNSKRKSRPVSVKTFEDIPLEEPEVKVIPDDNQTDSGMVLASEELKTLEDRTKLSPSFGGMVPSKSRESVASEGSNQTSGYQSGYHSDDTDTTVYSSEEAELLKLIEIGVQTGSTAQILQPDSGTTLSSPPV

COc1ccc(-c2cc(=O)oc3c(O)c(O)ccc23)cc1O showed an IC50 [1] of 4900 nM and an IC50 [2] of 5500 nM.
With COc1ccc(-c2ocnc2-c2cc(Br)c(OC)c(OC)c2)cc1OCCCC(=O)NO the IC50 (EA.hy 926) was 18 nM.
COC(=O)NCCc1c(C(=O)c2cc(C(F)(F)F)cc(C(F)(F)F)c2)[nH]c2ccccc12 gave an IC50 (A549 [3]) of 2010 nM and an IC50 (MCF7 [4]) of 1300 nM.
In the case of CC(=O)O[C@H]1C(=O)[C@@]2(C)[C@H]([C@H](OC(=O)c3ccccc3)[C@]3(O)C[C@H](OC(=O)[C@H](O)[C@@H](NC(=O)c4ccccc4)c4ccccc4)C(C)=C1C3(C)C)[C@]1(OC(C)=O)CO[C@@H]1C[C@@H]2O [PACLITAXEL], the inhibition in vivo at 30 mg/kg (NCI-H460 [5]) is reported as 40%.
COc1ccc(N(C)c2nc(C)nc3ccccc23)cc1OCCCC(=O)NO gave an IC50 [6] of 31 nM, an IC50 (JeKo-1) of 31 nM and an IC50 (HT-29) of 31 nM. For the same molecule, the IC50 [7] was 31 nM, the IC50 (RPMI-8226) was 31 nM and the IC50 (A2780S) was 31 nM. The IC50 (MV4-11) was 31 nM, the IC50 (SK-OV-3) was 31 nM and the IC50 (NCI-H460 [8]) was 31 nM. It also gave an IC50 (A-375) of 31 nM, an IC50 (MDA-MB-231) of 31 nM and an IC50 (HepG2) of 31 nM. It also gave an IC50 (U-266) of 31 nM, an IC50 (HCT-116 [9]) of 31 nM and an IC50 (MM1.S) of 31 nM. For the same molecule, the IC50 [10] was 31 nM, the IC50 (Ramos) was 31 nM and the IC50 (K562) was 31 nM. For the same molecule, the IC50 (MCF7 [11]) was 31 nM and the IC50 (A549 [12]) was 31 nM.
In the case of COc1ccc(/C=C\c2cc(OC)c(OC)c(OC)c2)cc1O [COMBRETASTATIN A4], the IC50 (EA.hy 926) is reported as 11 nM.
In the case of COc1cc(C(=O)c2ccc3c(n2)C(=O)C(N2CCCC2)=CC3=O)cc(OC)c1OC, the IC50 (Tubulin) is reported as 5900 nM, the IC50 (HONE1 cell line) is reported as 70 nM and the IC50 (HCT-116 [13]) is reported as 70 nM. It also gave an IC50 (KB) of 70 nM.
